Experimental data: patent publication US12590099B2, “Inhibitors of histone deacetylase useful for the treatment or prevention of HIV infection” (Merck Sharp & Dohme LLC, priority 2018, dated 2026)
Where two headings read alike, the source gives them in different places.

Columns and labels:
Recombinant human HDAC8 = target: T1, Recombinant human HDAC8 (Homo sapiens, UniProt Q9BY41); test: Human HDAC enzyme inhibitor Fluor-de-Lys assay, HDAC8; type: biochemical
T1 construct: purchased Enzo Life Sciences BML-SE145-0100
T1 sequence (Q9BY41 1-377): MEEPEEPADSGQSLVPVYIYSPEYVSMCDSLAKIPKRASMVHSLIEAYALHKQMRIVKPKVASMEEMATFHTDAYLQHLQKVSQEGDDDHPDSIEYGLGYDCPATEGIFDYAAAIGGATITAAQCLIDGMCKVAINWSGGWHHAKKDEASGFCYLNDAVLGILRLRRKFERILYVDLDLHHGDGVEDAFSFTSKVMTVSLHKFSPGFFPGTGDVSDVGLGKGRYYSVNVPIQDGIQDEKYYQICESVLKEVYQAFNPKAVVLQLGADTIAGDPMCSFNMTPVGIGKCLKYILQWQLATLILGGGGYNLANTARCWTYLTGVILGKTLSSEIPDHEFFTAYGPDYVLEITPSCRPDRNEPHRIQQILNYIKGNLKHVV
Description: (§1) Human HDAC Enzyme Inhibitor Fluor-De-Lys Assay
(§2) Recombinant human HDAC8 (BML-SE145-0100) and HDAC10 (BML-SE559-0050) enzymes, HDAC substrates BML-KI104 and BML-KI178, and HDAC developer solutions BML-KI105 and BML-KI176 were purchased from Enzo Life Sciences. […] HDAC inhibitor suberoylanilide hydroxamic acid (SAHA) was obtained from Indofine and trichostatin A (TSA) was obtained from Sigma-Aldrich.
(§3) The histone deacetylase activities of HDAC1, HDAC2, HDAC3, HDAC6, and HDAC8 were measured in modified FLUOR DE LYS assays in 384-well format. In this assay, HDAC enzymes are initially incubated with an ε-acetyl (or -trifluoroacetyl)-L-lysine-containing substrate with a C-terminal amide having aminomethylcoumarin as the amine component. HDACs cleave the ε-acetyl group, rendering the resulting product susceptible to AMC cleavage by trypsin. The released AMC is then detected by its fluorescence.
(§4) The HDAC3/SMRT assay employed buffer B, consisting of 20 mM HEPES, pH 8.0, 1 mM MgCl2, 50 mM NaCl, 2.7 mM KCl, 0.05% BSA, 0.005% Tween 20, and 10 μM IP4. […] The HDAC8 assay employed buffer D, consisting of 20 mM HEPES, pH 8.0, 1 mM MgCl2, 100 mM NaCl, 20 mM KCl, 0.10% n-octyl-β-D-glucoside (Anatrace) and 0.05% BSA. All steps were performed at room temperature (23° C.). The assay was performed by pre-incubating serial dilutions of test compounds with the target HDAC prior to initiation with substrate. Each compound was titrated in a 10-point dose response, using a 1:3 fold dilution scheme, with 0.15 ul of solution added by ECH0555 to the plate, followed by the addition of 20 μl of the appropriate HDAC isoform diluted in appropriate assay buffer. […] Final conditions used for each assay were: 1. HDAC 1, 0.3 nM total enzyme, 20 μM substrate BML-KI104; 2. […] HDAC 3/SMRT, 0.3 nM total enzyme, 20 μM substrate BML-KI104; 4. […] The reactions were stopped and developed by addition of 30 ul of HDAC developer solution containing a saturating level of HDAC inhibitor as follows: 1.

HDAC6 = target: T2, HDAC6 (Homo sapiens, UniProt Q9UBN7); test: Human HDAC enzyme inhibitor Fluor-de-Lys assay, HDAC6; type: biochemical
T2 sequence (Q9UBN7 1-1215): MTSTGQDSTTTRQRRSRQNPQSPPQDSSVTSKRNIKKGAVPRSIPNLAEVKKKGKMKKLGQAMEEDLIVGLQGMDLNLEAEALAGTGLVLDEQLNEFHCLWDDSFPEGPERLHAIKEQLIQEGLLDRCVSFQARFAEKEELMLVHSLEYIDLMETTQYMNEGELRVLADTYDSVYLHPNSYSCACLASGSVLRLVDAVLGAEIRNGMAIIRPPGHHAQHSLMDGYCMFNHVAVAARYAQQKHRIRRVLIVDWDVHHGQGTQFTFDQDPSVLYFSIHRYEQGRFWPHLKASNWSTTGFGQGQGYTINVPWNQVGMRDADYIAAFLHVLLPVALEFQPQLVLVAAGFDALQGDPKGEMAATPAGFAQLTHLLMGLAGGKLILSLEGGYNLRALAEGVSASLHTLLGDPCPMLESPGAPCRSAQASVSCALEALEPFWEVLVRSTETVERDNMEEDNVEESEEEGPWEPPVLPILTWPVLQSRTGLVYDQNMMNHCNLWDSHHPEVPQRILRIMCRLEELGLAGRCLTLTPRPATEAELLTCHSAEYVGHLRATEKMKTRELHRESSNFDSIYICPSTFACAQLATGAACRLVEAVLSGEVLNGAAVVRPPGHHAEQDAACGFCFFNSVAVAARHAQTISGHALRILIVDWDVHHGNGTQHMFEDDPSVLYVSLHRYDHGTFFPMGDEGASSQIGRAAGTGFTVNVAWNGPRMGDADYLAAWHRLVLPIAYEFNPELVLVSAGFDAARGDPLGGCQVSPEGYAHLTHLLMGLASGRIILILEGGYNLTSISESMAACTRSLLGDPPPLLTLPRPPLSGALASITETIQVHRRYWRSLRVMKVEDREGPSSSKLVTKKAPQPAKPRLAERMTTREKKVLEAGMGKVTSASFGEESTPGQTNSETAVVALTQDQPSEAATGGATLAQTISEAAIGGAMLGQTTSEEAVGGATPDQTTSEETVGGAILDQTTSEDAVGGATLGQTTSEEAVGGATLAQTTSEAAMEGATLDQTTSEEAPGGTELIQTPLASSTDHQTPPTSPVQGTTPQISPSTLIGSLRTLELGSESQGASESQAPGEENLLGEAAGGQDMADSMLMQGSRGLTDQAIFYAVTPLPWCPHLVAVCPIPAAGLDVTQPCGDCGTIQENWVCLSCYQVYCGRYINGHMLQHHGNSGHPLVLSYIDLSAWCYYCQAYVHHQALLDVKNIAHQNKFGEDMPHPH
Description: as §1, §2, §3, §4

KARN cells (Jurkat 2C4) = test: cells; type: cell-based
Description: KARN cells (Jurkat 2C4) were licensed from the laboratory of Dr. John Karn, Case Western Reserve University, School of Medicine. […] An atmosphere of 5% CO2 and 90% humidity was used for all culture work.
Day 1: After the 3-4 day growth period, the cells were transferred from the T175 flask to a 50 ml conical tube and gently pelleted at 1000 rpm for 5 minutes. […] These flasks were returned to the incubator.
Day 2: Cell Preparation: The next day, the cells were transferred from each T175 flask to an individual 50 ml conical tube and gently pelleted at 1000 rpm for 5 minutes. The cells were gently resuspended in assay media (30 ml) and pelleted again. […] The cells were counted using the ViCell (Beckman Coulter) and diluted as necessary. […] The plates were covered and returned to the incubator prior to compound addition.
The reference compounds, DMSO and SAHA were then added to the compound plate. […] The final high concentration for SAHA and the test compounds in the assays was 40 μM. The final DMSO concentration in all wells was 0.4%. The minimal induction reference compound used was DMSO and the maximal induction reference compound used was SAHA (2 μM final concentration in the assay).
Day 3: The luciferase detection reagent was prepared by transferring the contents of one bottle of Steady-Glo buffer to one bottle of Steady-Glo aubstrate (Steady-Glo Luciferase Assay System, Promega, catalog number E2520), followed by gently mixing until the substrate was thoroughly dissolved and the solution was equilibrated to room temperature. […] The Steady-Glo Reagent was added to the plates (30 μl/well), which were then covered with a black lid and incubated for 10 minutes at room temperature. The plates were then read for luminescence on an Envision (Perkin Elmer) using the ultrasensitive mode (US LUM), […] and 384-well aperture. Luminescence counts in the DMSO reference wells were considered as 0% induction, while those in the 2 μM SAHA reference wells were considered as 100% induction. Dose response curves were plotted as test compound concentration (X-axis) vs. percent activation (Y-axis) using a 4-parameter fit based on the Levenberg-Marquardt algorithm.

[1] = read-out: Karn EC50 (nM) 0.1% NHS, 0.1% normal human serum
[2] = read-out: Karn EC50 (nM) 5% NHS, 5% normal human serum
[3] = recombinant human HDAC8, Fluor-de-Lys assay
[4] = Homo sapiens, Jurkat, read-out: Karn EC50 (nM) 0.1% NHS, 0.1% normal human serum, luciferase induction, 100% = 2 μM SAHA
[5] = Homo sapiens, Jurkat, read-out: Karn EC50 (nM) 5% NHS, 5% normal human serum, luciferase induction, 100% = 2 μM SAHA
[6] = Homo sapiens, Jurkat, read-out: Karn EC50 (nM) 0.1% NHS, 0.1% normal human serum
[7] = Homo sapiens, Jurkat, read-out: Karn EC50 (nM) 5% NHS, 5% normal human serum

SMILES	IC50 (Recombinant human HDAC8) [nM]	IC50 (HDAC6) [nM]	EC50 (KARN cells (Jurkat 2C4); [4]) [nM]	EC50 (KARN cells (Jurkat 2C4); [5]) [nM]	EC50 (KARN cells (Jurkat 2C4); [6]) [nM]	EC50 (KARN cells (Jurkat 2C4); [7]) [nM]	also measured
CCC(=O)CCCCC[C@H](NC(=O)C1CC12CCC(N(C)C)CC2)c1ncc(-c2cc3ccccc3nc2OC)[nH]1 (single isomer, unassigned) [Compound 127]	76	364					EC50 (KARN cells (Jurkat 2C4); [1]): 37 nM; EC50 (KARN cells (Jurkat 2C4); [2]): 60 nM
CCC(=O)CCCCC[C@H](NC(=O)C1CC12CCC(N(C)C)CC2)c1ncc(-c2cc3ccccc3nc2OC)[nH]1 (single isomer, unassigned) [Compound 128]	5580	759					EC50 (KARN cells (Jurkat 2C4); [1]): 442 nM; EC50 (KARN cells (Jurkat 2C4); [2]): 1140 nM
CCC(=O)CCCCC[C@H](NC(=O)[C@@H]1CC12CCN(C(N)=O)CC2)c1ncc(-c2cc3ccccc3nc2OC)[nH]1 (single isomer, unassigned) [Compound 318]			861	4600			IC50 (Recombinant human HDAC8; [3]): 1200 nM; IC50 (HDAC6; HDAC6, Fluor-de-Lys assay): 551 nM
CCC(=O)CCCCC[C@H](NC(=O)[C@H]1CC12CCN(C(N)=O)CC2)c1ncc(-c2cc3ccccc3nc2OC)[nH]1 (single isomer, unassigned) [Compound 319]			1560	9850			IC50 (Recombinant human HDAC8; [3]): 2270 nM; IC50 (HDAC6; HDAC6, Fluor-de-Lys assay): 1170 nM
CCC(=O)CCCCC[C@H](NC(=O)[C@@H]1CC12CCN(C)CC2)c1ncc(-c2cc3ccccc3nc2OC)[nH]1 (single isomer, unassigned) [Compound 320]			339	1370			IC50 (Recombinant human HDAC8; [3]): 14600 nM; IC50 (HDAC6; HDAC6, Fluor-de-Lys assay): 709 nM
CCC(=O)CCCCC[C@H](NC(=O)[C@H]1CC12CCN(C)CC2)c1ncc(-c2cc3ccccc3nc2OC)[nH]1 (single isomer, unassigned) [Compound 321]			27	83			IC50 (Recombinant human HDAC8; [3]): 3380 nM; IC50 (HDAC6; HDAC6, Fluor-de-Lys assay): 158 nM
CCC(=O)CCCCC[C@H](NC(=O)[C@@H]1CC12CCN(C)CC2)c1ncc(-c2cc3ccccc3nc2O)[nH]1 (single isomer, unassigned) [Compound 324]			1170	1210			
CCC(=O)CCCCC[C@H](NC(=O)[C@H]1CC12CCN(C)CC2)c1ncc(-c2cc3ccccc3nc2O)[nH]1 (single isomer, unassigned) [Compound 325]			154	216			
CCC(=O)CCCCC[C@H](NC(=O)[C@H]1CC12CCOCC2)c1ncc(-c2cc3ccccc3nc2OC)[nH]1 [Compound 63]	3090	619			234	1790	
CCC(=O)CCCCC[C@H](NC(=O)[C@@H]1CC12CCOCC2)c1ncc(-c2cc3ccccc3nc2OC)[nH]1 [Compound 64]	6350	3580			647	5040	
CCC(=O)CCCCC[C@H](NC(=O)[C@H]1CC12CCN(CC)CC2)c1ncc(-c2ccc3c(=O)n(CC)ccc3c2)[nH]1 [Compound 92]	6260	2980			52	56	
CCC(=O)CCCCC[C@H](NC(=O)[C@H]1CC12CCN(C)CC2)c1ncc(-c2cccnc2OC)[nH]1 [Compound 102]	3260	1950			290	301	
CCC(=O)CCCCC[C@H](NC(=O)[C@H]1CC12CCN(CC)CC2)c1ncc(-c2cc3ccccc3nc2OC)o1 [Compound 124]	16000	137			111	151	
CCC(=O)CCCCC[C@H](NC(=O)[C@H]1CC12CCN(C)CC2)c1ncc(-c2cc3ncccc3nc2OC)[nH]1 [Compound 142]	5120	3670			311	544	
CCC(=O)CCCCC[C@H](NC(=O)[C@@H]1CC12CCN(C)CC2)c1ncc(-c2ccc3ncccc3c2)[nH]1 [Compound 281]			2140	2170			
CCC(=O)CCCCC[C@H](NC(=O)[C@H]1CC12CCN(C)CC2)c1ncc(-c2ccc3ncccc3c2)[nH]1 [Compound 282]							EC50 (KARN cells (Jurkat 2C4); read-out: Karn EC50 (nM) 0.1% NHS, 0.1% normal human serum, luciferase induction, 100% = 2 μM SAHA): 294 nM; EC50 (KARN cells (Jurkat 2C4); read-out: Karn EC50 (nM) 5% NHS, 5% normal human serum, luciferase induction, 100% = 2 μM SAHA): 247 nM
CCC(=O)CCCCC[C@H](NC(=O)[C@H]1C[C@]12CCN(C)C2)c1ncc(-c2cc3ccccc3nc2OC)[nH]1 [Compound 327]			73	232			IC50 (Recombinant human HDAC8; [3]): 3870 nM
